Patent EP4656630A1, “NOVEL COMPOUND AS LYSYL-TRNA SYNTHETASE 1 INHIBITOR, AND USE THEREOF” (Zymedi Co., Ltd., priority 2023, dated 2024)

How the values were obtained:
Raw 264.7 cells = experiment: LN (Laminin 421)-induced immune cell migration, Transwell; format: cell-based; settings: Mus musculus, RAW264.7; 3 µM compound, LN (Laminin 421 1 µg/ml), 24 hours, % inhibition compared to control group; read-out: Migration inhibitor % (3uM)
Description: Cell migration was assessed based on the method described in the prior literature (Park, S. G. et al. Human lysyl-tRNA synthetase is secreted to trigger proinflammatory response. Proceedings of the National Academy of Sciences, 2005, 102.18: 6356-6361.). The specific experimental method is as follows. A Transwell (Corning#3421-5µm pore) was coated with gelatin (0.5mg/ml), and then Raw 264.7 cells (1 x 10^5 cells/well) were seeded in the upper chamber. Serum-free medium (Serum Free DMEM, 500 µl) containing LN (Laminin 421 1 µg/ml) was added to the lower chamber. Each compound was treated at a concentration of 3µM in the upper chamber. After 24 hours, the cells were fixed with 70% methanol for 30 minutes and stained with 50% hematoxylin for 30 minutes. Non-migrating cells on the upper side of the membrane were removed with a cotton swab, and the membrane was mounted on a slide. Migrating cells on the lower side of the membrane were observed under a high-power microscope, and the number of cells was measured from the obtained images and expressed as the inhibition rate (% inhibition) compared to the control group.

Raw264.7 cells = experiment: KARS1-induced trans-migration assay; format: cell-based, mouse; settings: for inhibition at 1 µM: 1 µM compound, read-out: KARS1-induced Raw264.7 cell migration (% inhibition, 1uM)
Description: C0001 inhibits the binding of KARS1 and 67LR, thereby blocking the migration of monocytes/macrophages and suppressing inflammation. Accordingly, a trans-migration assay using mouse macrophages (Raw264.7) was conducted to preliminarily screen drugs that inhibit the migration of monocytes/macrophages.
Based on this, when KARS1 protein was directly treated externally instead of LN, the trans-migration of Raw264.7 was induced, and the cell migration inhibitory effect of the KARS1 inhibitor C0001 was confirmed. It was verified that C0001, which specifically binds to KARS1, can inhibit cell migration by binding to extracellular KARS1, in addition to the mechanism of inhibiting cell membrane migration of KARS1 induced by laminin and its binding to 67LR, thereby enabling this analysis to be used as a direct method for evaluating in vitro activity against KARS1.
Next, preliminary candidate substances with high inhibitory activity at 1 µM were treated at concentrations of 0.1~4 µM for analysis.

Row | EC50 (Raw264.7 cells; Mus musculus, RAW264.7, KARS1-induced cell migration, 0.1~4 µM) | SMILES | inhibition at 3 µM (Raw 264.7 cells) | inhibition at 1 µM (Raw264.7 cells; Mus musculus, RAW264.7) | times higher activity compared to C0001 (Raw264.7 cells; EC50, KARS1-induced cell migration)
1 |  | COc1ccc(CCN(Cc2nc3cc(C(=O)O)ccc3o2)c2nc3cccc(F)c3s2)cc1 [Compound 28, 2-(((7-fluorobenzo[d]thiazol-2-yl)(4-methoxyphenethyl)amino)-methyl)benzo[d]oxazole-5-carboxylic acid] | 16.4% | 43.2% | 
2 |  | COc1ccc(CCN(Cc2ccc3c(c2)CNC3)c2nc3cccc(F)c3s2)cc1 [Compound 29, 7-fluoro-N-(isoindolin-5-ylmethyl)-N-(4-methoxyphenethyl)benzo-[d]thiazol-2-amine] | 33% | 4.1% | 
3 |  | COc1ccc(CCN(Cc2ccc3c(c2)CN(S(N)(=O)=O)C3)c2nc3cccc(F)c3s2)cc1 [Compound 31, 5-(((7-fluorobenzo[d]thiazol-2-yl)(4-methoxyphenethyl)amino)-methyl)isoindoline-2-sulfonamide] | 72.8% | 28.3% | 
4 |  | COc1ccc(CCN(Cc2ccc(-n3ccc(C(=O)O)c3)cc2)c2nc3cccc(F)c3s2)cc1 [Compound 34, 1-(4-(((7-fluorobenzo[d]thiazol-2-yl)(4-methoxyphenethyl)amino)-methyl)phenyl)-1H-pyrrole-3-carboxylic acid] | 13% | 99.4% | 
5 |  | COc1ccc(CCN(Cc2ccc(C3(C(=O)O)CCC3)cc2)c2nc3cccc(F)c3s2)cc1 [Compound 36, 1-(4-(((7-fluorobenzo[d]thiazol-2-yl)(4-methoxyphenethyl)amino)-methyl)phenyl)cyclobutane-1-carboxylic acid] | 21.8% | 96.8% | 
6 |  | COc1ccc(CCN(Cc2ccc(N3CC[C@@H](C(=O)O)C3)cc2)c2nc3ccccc3o2)cc1 [Compound 37, (R)-1-(4-((benzo[d]oxazol-2-yl(4-methoxyphenethyl)amino)methyl)-phenyl)pyrrolidine-3-carboxylic acid] | 19.3% | 50.6% | 
7 |  | COc1ccc(CCN(Cc2ccc(N3CC[C@H](C(=O)O)C3)cc2)c2nc3ccccc3o2)cc1 [Compound 38, (S)-1-(4-((benzo[d]oxazol-2-yl(4-methoxyphenethyl)amino)methyl)-phenyl)pyrrolidine-3-carboxylic acid] | 15.3% | 40.4% | 
8 |  | COc1ccc(CCN(Cc2ccc(C#CC(=O)O)cc2)c2nc3cccnc3o2)cc1 [Compound 44, 3-(4-(((4-methoxyphenethyl)(oxazolo[5,4-b]pyridin-2-yl)amino)-methyl)phenyl)propiolic acid] | 1.1% |  | 
9 |  | COc1ccc(CCN(Cc2ccc(N3CCC(C(=O)O)CC3)cc2)c2nc3cccc(F)c3s2)cc1 [Compound 46, 1-(4-(((7-fluorobenzo[d]thiazol-2-yl)(4-methoxyphenethyl)amino)-methyl)phenyl)piperidine-4-carboxylic acid] |  | 90.9% | 
10 | 80 nM | COc1ccc(CCN(Cc2ccc(-n3cc(C(=O)O)cn3)cc2)c2nc3cccc(F)c3s2)cc1 [Compound 47, 1-(4-(((7-fluorobenzo[d]thiazol-2-yl)(4-methoxyphenethyl)amino)-methyl)phenyl)-1H-pyrazole-4-carboxylic acid] |  | 99.7% | approximately 10 times
11 |  | NC(=O)c1ccc(CCN(Cc2ccc(N3CC[C@H](C(=O)O)C3)cc2)c2nc3cccc(F)c3s2)cc1 [Compound 48, (S)-1-(4-(((4-carbamoylphenethyl)(7-fluorobenzo[d]thiazol-2-yl)amino)methyl)phenyl)pyrrolidine-3-carboxylic acid] |  | 36.6% | 
12 |  | O=C(O)[C@H]1CCN(c2ccc(CN(CCn3ccccc3=O)c3nc4cccc(F)c4s3)cc2)C1 [Compound 49, (S)-1-(4-(((7-fluorobenzo[d]thiazol-2-yl)(2-(2-oxopyridin-1(2H)-yl)ethyl)amino)methyl)phenyl)pyrrolidine-3-carboxylic acid] |  | 34.8% | 
